Earlier results as cited in patent US5827842A, “14α, 17α-C2 -bridged norprogesterone derivatives” (Schering Aktiengesellschaft, priority 1994, dated 1998).

Tested on: endometrium

CC(=O)[C@]12CC[C@@]3(CC1)[C@@H]1CCC4=CC(=O)CC[C@@H]4[C@H]1CC[C@]23C [14,17-Ethano-19-norpregn-4-ene-3,20-dione]
factor between subcutaneous and peroral action (J. Med. Chem. 16, 270 (1973)): over 20
gestagenic action in the Clauberg Test after oral administration (oral administration): only a slight effect
gestagenic action in the Clauberg Test after subcutaneous administration (subcutaneous administration): good effect
